Source: patent publication US20250052985A1, “SYSTEM AND METHOD FOR QUANTITATIVE PHASE IMAGING FOR MULTI-PARAMETRIC SCREENING OF TUMOR THERAPY RESPONSE” (UNIVERSITY OF UTAH RESEARCH FOUNDATION, priority 2023, published 2025)
Values joined by “and” are separate entries in the source; they are usually repeats but may differ in a detail not shown here. Equal entries are not always repeated. Values belong to the molecule of their own block, whether it stands above or below them.

How the values were obtained:
MDA-MB-231 cells = experiment: Quantitative phase imaging (QPI) growth response, MDA-MB-231; format: cell-based; design: DoR QPI: scale not given here; ToR 20 μM: unit not given here
Excerpt: (§1) In some embodiments, breast cancer cell lines are imaged, representing diverse clinical subtypes, summarized in Table 2 below, using a QPI microscope (FIG. 1A) based on differential phase contrast (DPC) microscopy and phase reconstruction via a QPI microscope system. DPC is used for image acquisition and phase reconstruction because DPC's flexible design may be customized for high throughput phase measurements. […] As illustrated in the embodiment of FIG. 1A, a QPI microscope system 100 conducts assays in a 96-well plate (e.g., a well-plate 105) with 6-point dose response curves and up to five therapies in triplicate including solvent controls, summarized in Table 4 below. As described below, in reference to FIG. 1A, a growth response of cells is measured noninvasively using QPI via a QPI microscope system 110 before being assayed using a CTG reader 115.
(§2) FIG. 1B illustrates a timeline plot 200 showing two plates (e.g., two, separate well-plates 105) set up in parallel to measure cell viability. With reference to FIG. 1B, two plates are set-up simultaneously for each experiment. A first plate 205 is incubated for 27 hours (h) post drug exposure prior to CTG analysis (3 h equilibration+24 h of imaging), which measures cell adenosine triphosphate (ATP) content as a surrogate for cell viability. A second plate 210 is imaged for 72 h after 3 h equilibration (e.g., 75 h) and followed by CTG. […] The imaging locations are imaged for 72 h, as shown by images 1700-1715 of FIG. 7.
(§3) In some embodiments, a dose-dependent change in growth, as indicated by a change in the rate of mass accumulation or loss, is a parameter that can be extracted from QPI dose-response data. […] Individual specific growth rate measurements are indicated by points in the distribution of the graph 1200 of FIG. 2A. Blue is indicative of the DMSO control and red is indicative of doxorubicin. The black outline is a kernel density function fit to the distribution of specific growth rates for each condition (e.g., *p<0.05, **p<0.01). In some embodiments, the average SGR of each condition is fit to a sigmoid dose-response curve using a Hill equation. For example, computed logistic fit parameters using a 4-parameter Hill model via the QPI microscope system 110 for all conditions are summarized in Tables 5-8 below. To determine if there is a response, as illustrated by FIG. 2B, the QPI microscope system 110 tests goodness of fit, adjusts for degrees of freedom using an F-test at significance p<0.01 by comparison to a flat line, as an indicator of no response. For cases with a better fit to the Hill equation, the 4-parameter Hill curve may be used by the QPI microscope system 110 to determine the EC50, a measure of sensitivity to therapy because it represents the effective concentration at which 50% of the cells respond to therapy, as illustrated by FIG. 10. […] A 4-parameter Hill curve is fit to each dose response plot to extract the depth of response and EC50 for each cell/drug pair. A flat line represents no response due to failure of the F-test to reject the null hypothesis that the logistic fit is indistinguishable from a flat line. […] Each color indicates a different drug or therapy used.

MCF-7 cells [1] = experiment: cells; conditions: for Max Asymptote / Min Asymptote: MCF-7, 4-parameter Hill fit of mean SGR vs concentration, one line per replicate; for Hill Slope: MCF-7, Hill fit; for DoR QPI: depth of response; for ToR 20 μM: time of response at 20 μM
Excerpt: as §1, §2, §3

BT-474 cells [2] = experiment: cells; conditions: for ToR 20 μM: time of response at 20 μM; for Hill Slope: BT-474, Hill fit; for EC50: Homo sapiens
Excerpt: as §1, §2, §3

MCF-7 cells [3] = experiment: CellTiter-Glo (CTG) ATP viability assay, MCF-7; format: cell-based
Description: (§4) CTG (e.g., read by the CTG reader 115) is a cell viability assay that quantifies the amount of ATP present at the end of an experiment as an indicator of the number of live cells. The electronic controller 155 measures ATP content in each condition as a readout by a luminescent signal, which is normalized by the luminescence of the control (e.g., a control well) to determine cell viability relative to on-plate controls. In some embodiments, the CTG assay is performed by first removing 100 μL of media from each well on the well-plate 105, which is then replaced with an equal amount of CellTiter-Glo reagent (e.g., Promega, G7572). Assayed plates may be shaken at 500 RPM for 20 minutes and allowed to rest for 10 minutes. In some instances, 100 μL of volume from each well is transferred to a white 96-well plate (e.g., Perkin Elmer, 6005680). The electronic controller 155 collects luminescence data from each well using an Envision plate reader (e.g., Perkin Elmer) and normalized against the solvent control to measure ATP content. The electronic controller 155 fits a 4-parameter hill curve to the dose response to determine the EC50 and depth of response.

BT-474 cells [4] = experiment: CellTiter-Glo (CTG) ATP viability assay, BT-474; format: cell-based; conditions: for Min Asymptote: BT-474, Hill fit of luminescence normalized to solvent control, one line per replicate; for EC50: Homo sapiens
Description: as §4

[5] = test system: primary tumor cells (Patient #1); experiment: QPI on primary cells after two-week expansion, Patient #1; format: cell-based
Description: In some embodiments, the QPI microscope system 110 applies multiparametric QPI to primary cells from two clinical samples stored in cell bank at, for example, the Huntsman Cancer Institute plated after thawing from liquid nitrogen and CD45+ depleted to reduce the number of immune cells, as shown in FIG. 26.
For example, the primary cells are plated as a 2D monolayer in Clever's complete medium in a 96 well plate (e.g., the well-plate 105) and are allowed to acclimate to cell culture conditions for 18 h prior to dosing with treatments assigned to each patient by a physician. […] The image 3600 is a QPI image of primary cells from a direct from thaw patient derived sample. […] The graph 3610 is a histogram of cell mass used to computationally filter, using the electronic controller 155, for low mass cells (shown in red in the image 3600 and the graph 3605). By using a cutoff between the peaks at, for example, 72 pg, low mass cells can be isolated that are not growing and remove such cells from analysis. […] Using this cutoff, the electronic controller 155 measures the dose response for cells in each condition to determine the EC50 and DoR for each condition studied for the primary cells, as shown in the graph 3615. The graph 3615 is a dose response plot for primary cells treated with therapies assigned to the patient by a physician. […] In some embodiments, the electronic controller 155 determines a drug response in cells from patient derived samples. For example, the electronic controller 155 determines the drug response in therapy treatment samples from patient derived samples.
In some embodiments, both samples are expanded from primary cells in 2D culture using optimized ex vivo culture conditions for 2 weeks, changing media every 3 days to further purify the tumor cells, as shown in a workflow 3700 of FIG. 27.

[6] = 72 h QPI, MDA-MB-231, 4-parameter Hill fit of mean SGR vs concentration, one line per replicate
[7] = 72 h QPI, BT-474, 4-parameter Hill fit of mean SGR vs concentration, one line per replicate

SMILES: N.N.O=C([O-])C1(C(=O)[O-])CCC1.[Pt+2] [Carboplatin]
Max Asymptote (MDA-MB-231 cells; [6]): 0.01609 and 0.02303 and 0.02092
Min Asymptote (MDA-MB-231 cells; [6]): 0.02861 and 0.03045 and 0.02714
growth rate and heterogeneity over time (MDA-MB-231 cells; MDA-MB-231, 20 μM): decrease in growth rate with little effect on heterogeneity relative to the control
growth rate and heterogeneity as concentration increases (MDA-MB-231 cells; MDA-MB-231, FIG. 22): decrease in growth rate and heterogencity simultaneously
EC50 (MDA-MB-231 cells; MDA-MB-231 cell line, QPI growth rate, read-out: EC50, QPI): 9100 nM
DoR QPI (MDA-MB-231 cells; MDA-MB-231 cell line, depth of response, QPI): 0.3
ToR 20 μM (MDA-MB-231 cells; MDA-MB-231 cell line, time of response at 20 μM): 18.3
Max Asymptote (MCF-7 cells [1]; 72 h QPI): 0.007047 and 0.01142
Min Asymptote (MCF-7 cells [1]; 72 h QPI): 0.01994 and 0.02292
Hill Slope (MCF-7 cells [1]; 72 h QPI): 3.7715 and 2.34
DoR QPI (MCF-7 cells [1]; MCF-7 cell line): 0.6
ToR 20 μM (MCF-7 cells [1]; MCF-7 cell line): 18.1
EC50 (MCF-7 cells [1]; read-out: EC50, QPI, MCF-7 cell line, QPI growth rate): 14.2 µM
ToR 20 μM (BT-474 cells [2]; BT-474 cell line): 38.7
Hill Slope (MCF-7 cells [3]; 72 h CTG, MCF-7, Hill fit): 3.126 and 5.114
log10(EC50) (MCF-7 cells [3]; 72 h CTG, MCF-7, Hill fit): −1.201 and −1.172
Min Asymptote (MCF-7 cells [3]; 72 h CTG, MCF-7, Hill fit of luminescence normalized to solvent control, one line per replicate): 0.5048 (2×) and 0.6498
EC50 (MCF-7 cells [3]; MCF-7 cell line, CellTiter-Glo, read-out: EC50, CTG (converted)): 15500 nM
DoR CTG (MCF-7 cells [3]; MCF-7 cell line, depth of response, CellTiter-Glo): 0.4

SMILES: CS(=O)(=O)CCNCc1ccc(-c2ccc3ncnc(Nc4ccc(OCc5cccc(F)c5)c(Cl)c4)c3c2)o1 [Lapatinib]
type of response (cytostatic/cytotoxic) (MCF-7 cells [1]): cytostatic response
Max Asymptote (MCF-7 cells [1]; 24 h QPI): 0.02919
Min Asymptote (MCF-7 cells [1]; 24 h QPI): 0.0206
Hill Slope (MCF-7 cells [1]; 24 h QPI): 1.4871
Max Asymptote (MCF-7 cells [1]; 72 h QPI): 0.01659
Min Asymptote (MCF-7 cells [1]; 72 h QPI): 0.02661
Hill Slope (MCF-7 cells [1]; 72 h QPI): 1.4826
EC50 (MCF-7 cells [1]; Homo sapiens, MCF7, 24 h, read-out: log10(EC50), 24 h QPI, MCF-7, Hill fit (converted), EC50 in μM per Table 1): 1.92 µM
EC50 (MCF-7 cells [1]; Homo sapiens, MCF7, 72 h, read-out: log10(EC50), 72 h QPI, MCF-7, Hill fit (converted), EC50 in μM per Table 1): 1.8 µM
EC50 (MCF-7 cells [1]; Homo sapiens, MCF7, MCF-7, QPI): ~1.5 µM
EC50 (MCF-7 cells [1]; Homo sapiens, MCF7, read-out: EC50, QPI, MCF-7 cell line, QPI growth rate): 1.5 µM
DoR QPI (MCF-7 cells [1]; MCF-7 cell line): 0.4
ToR 20 μM (MCF-7 cells [1]; MCF-7 cell line): 38.2
type of response (cytostatic/cytotoxic) (BT-474 cells [2]): cytotoxic response
Max Asymptote (BT-474 cells [2]; 24 h QPI, BT-474, 4-parameter Hill fit of mean SGR vs concentration, one line per replicate): 0.009114 and 0.01239 and 0.01012
Hill Slope (BT-474 cells [2]; 24 h QPI): 1.0728 and 1.0622 and 0.7683
Max Asymptote (BT-474 cells [2]; [7]): −0.005233 and −0.002968 and −0.002717
Min Asymptote (BT-474 cells [2]; [7]): 0.008681 and 0.009519 and 0.009646
Hill Slope (BT-474 cells [2]; 72 h QPI): 0.8265 and 1.1159 and 1.0735
growth rate and heterogeneity as concentration increases (BT-474 cells [2]; BT-474, FIG. 22): decrease in growth rate and heterogeneity
DoR QPI (BT-474 cells [2]; BT-474 cell line, depth of response, QPI): 1.4
ToR 20 μM (BT-474 cells [2]; BT-474 cell line): −1.0616
ToR faster than in MCF-7 (BT-474 cells [2]; BT-474 vs MCF-7): 60 h
decrease in heterogeneity relative to MCF-7 (BT-474 cells [2]; BT-474 vs MCF-7): 30%
EC50 (BT-474 cells [2]; BT-474, BT-474, QPI): ~1500 nM
EC50 (BT-474 cells [2]; BT-474, read-out: EC50, QPI, BT-474 cell line, QPI growth rate): 1600 nM
EC50 (BT-474 cells [2]; BT-474, read-out: EC50, SD, BT-474 cell line, EC50 of the standard deviation): 1650 nM
Hill Slope (BT-474 cells [4]; 24 h CTG, BT-474, Hill fit): 0.4575
Min Asymptote (BT-474 cells [4]; 24 h CTG): 0.2926
Hill Slope (BT-474 cells [4]; 72 h CTG, BT-474, Hill fit): 0.6736 and 1.021
log10(EC50) (BT-474 cells [4]; 72 h CTG, BT-474, Hill fit): 0.04318
Min Asymptote (BT-474 cells [4]; 72 h CTG): 0.3102 and 0.4062 (2×)
DoR CTG (BT-474 cells [4]; BT-474 cell line, depth of response, CellTiter-Glo): 0.6
EC50 (BT-474 cells [4]; BT-474, 24 h, 24 h CTG, BT-474, Hill fit, read-out: log10(EC50) (converted)): 165000 nM
EC50 (BT-474 cells [4]; BT-474, BT-474 cell line, CellTiter-Glo, read-out: EC50, CTG): 1700 nM

SMILES: C=C1C[C@@H]2CC[C@@]34C[C@H]5O[C@H]6[C@@H](O3)[C@H]3O[C@H](CC[C@@H]3O[C@H]6[C@H]5O4)CC(=O)C[C@@H]3[C@@H](OC)[C@@H](C[C@H](O)CN)O[C@H]3C[C@H]3O[C@@H](CC[C@@H]1O2)C[C@@H](C)C3=C [eribulin]
overall response relative to doxorubicin or gemcitabine ([5]; Patient #1, concentration just above the EC50, normalized mass over time): lesser overall response
DoR relative to the other therapies tested ([5]; Patient #1, dose response plots): lower DoR
growth rate after the first day ([5]; Patient #1, rest of the experiment): approximately 0.0012 h−1

EC50 compared with eribulin ([5]; Patient #1): lower EC50 than eribulin
SMILES: Nc1ccn([C@@H]2O[C@H](CO)[C@@H](O)C2(F)F)c(=O)n1 [gemcitabine]
